According to article PMC6331809, “Antigenotoxicity and Tumor Growing Inhibition by Leafy Brassica carinata and Sinigrin” (Molecules, 2015):
Values after ≈ are worked out from the molar mass of the structure shown. Values joined by “and” are separate entries in the source; they are usually repeats but may differ in a detail not shown here. Equal values may be shown once. Read-outs that look alike come from different tables or passages of the source. Marks after values point to notes of the source that are not given here.

Columns and labels:
[1] = system: Drosophila melanogaster; assay: Toxicity in SMART: Drosophila adult survival after simple and combined (H2O2) treatment; type: in vivo; details: for Survival, average: average over all assayed concentrations
Description: Toxicity (T) was determined as percentage of survival adults with respect to 450 untreated 72 h old larvae from three independent experiments: T = (N° of emerging individuals in treatment/N° of emerging individuals in the negative control) × 100(1)

[2] = system: Drosophila melanogaster
Description: (§1) The genotoxic and antigenotoxic activity of lyophilized leaves of B. carinata and sinigrin were evaluated by the Drosophila Somatic Mutation and Recombination Test (SMART). Drosophila is a holometabolous animal which in vivo experiments permit to make analogies with humans due to the high percentage of homologue genes in common with human. […] Both characteristics make this test an optimal protocol in order to test molecules and complex mixtures with health benefices for humans. Two different D. melanogaster strains carrying visible wing genetic markers on the left arm of chromosome 3 were used: the flare (flr) strain flr^3/ln (3LR) TM3, Bd^s and the multiple wing-hair (mwh) strain mwh/mwh. These markers were selected due to their position in the Drosophila genome, covering a wide portion of one of their four chromosomes. Specifically, they affect the wing imaginal disks which present more cells with a uniform growth during larvae development than other Drosophila imaginal disks. This fact makes possible to detect easily a high number of mutations, somatic recombinations and disjunctions produced in the Drosophila DNA during all treatment periods by wing microscopic observation. In this sense, these markers are present in other genetic background (strains) but crosses produce mutations with a basal mutation rate too high and disturbing hair anomalous pattems. The marker flare (flr^3, 3_38.3) is a recessive mutation which produces individual wing hairs that are malformed. The flr^3 allele is a zygotic recessive lethal, which is maintained in the strain over the balancer chromosome TM3 (TM3, Bd^S: Third Multiple 3, Beaded-Serrate). The marker multiple wing hairs (mwh, 3_0.3) is a recessive mutation that is viable in homozygous flies, producing multiple hairs per cell instead of the wild type single-hair trichome. Two types of crosses were used: the standard cross with flr^3/TM3, Bd^S females mated to mwh/mwh males and the reciprocal cross.
(§2) Hybrid eggs from crossing optimally fertile flies were collected over an 8-h period. Emerged larvae, 72 ± 4 h later, were cleaned up from remaining feeding medium, using sterile distilled water, and subsequently were transferred into treatment vials. These vials contained tested conditions which consisted of 0.85 g of Drosophila Instant Medium (Formula 4–24, Carolina Biological Supply, Burlington, NC, USA) wetted with 4 mL of a mixture of distilled-sterile water and the appropriate concentration of lyophilized plant or the single compound sinigrin.
(§3) Genotoxicity/antigenotoxicity tests were performed following the standard protocol. Antigenotoxicity tests were carried out by mixing the genotoxin hydrogen peroxide (H2O2, Sigma-Aldrich) with the plant or single compound in appropriate concentrations.
(§4) The groups consisting of approximately 100 larvae each were: (i) negative control (distilled water); (ii) mutagenic positive control (H2O2 0.12 M); (iii) 3 vials with increasing concentrations of B. carinata (1.25, 2.5, and 5 mg·mL^−1); and (iv) 4 vials with increasing concentrations of sinigrin (0.6, 1.2, 2.4 and 4.8 mM). Sinigrin concentrations were chosen on the basis of the sinigrin content of the B. carinata sample used in this study.
(§5) Larvae were fed on both treated and control mediums until pupation (about 48 h). After emergence, resulting adult flies were collected from the treatment vials, sacrificed under CO2 narcotization and stored in a 70% ethanol solution in sterile water.
(§6) Transheterozygous wings (mwhflr^+/mwh^+ flr^3) were mounted and wing hair mutations (spots) were scored. Both dorsal and ventral surfaces of the wings containing 22,000 cells were screened under a photonic microscope (Nikon, Amsterdam, Netherlands) at 400× magnification for the occurrence of individual spots (mwh or flr phenotype) or twin spots (mwh clone adjacent to flr clone).

[3] = system: Drosophila melanogaster; assay: Antigenotoxicity in SMART, combined treatment with H2O2; type: in vivo; details: for Large single spots > 2 cells; m = 5: mutation rate (number of spots) / Small single spots 1–2 cells; m = 2: diagnosis / Small single spots 1–2 cells; m = 2: mutation rate (number of spots) / Total spots m = 2: diagnosis / Total spots m = 2: mutation rate (number of spots) / Twin spots m = 5: mutation rate (number of spots): combined with 0.12 M H2O2; as to Small single spots 1–2 cells; m = 2: diagnosis: key: + (positive); − (negative); as to Total spots m = 2: diagnosis: key: + (positive); − (negative)
Description: as §1, §2, §3, §4, §5, §6

[4] = system: Caenorhabditis elegans; design: method as in PMID 19277288; details: C. elegans, cited from earlier work
[5] = system: induced hepatocarcinogenesis in rats; design: method as in PMID 2387027; dose or concentration left out as unconfirmed; details: orally in a diet; cited from earlier work
[6] = system: hamster ovary cell line (CHO); details: cited from earlier work
[7] = sinigrin 0.60 mM, simple treatment
[8] = sinigrin 1.20 mM, simple treatment
[9] = sinigrin 2.40 mM, simple treatment
[10] = sinigrin 4.81 mM, simple treatment

## C=CCC(=NOS(=O)(=O)O)S[C@@H]1O[C@H](CO)[C@@H](O)[C@H](O)[C@H]1O (stereo in doubt) [Sinigrin, sinigrin]
[1]; combined treatments with 0.12 M H2O2
  Survival, average: 38.11%
[1]; simple treatments
  Survival, average: 68.27%
[1]; sinigrin 0.60 mM, combined with 0.12 M H2O2
  Survival: 25.56 * %
[1]; sinigrin 0.60 mM, combined with 0.12 M H2O2, listed as sinigrin
  Survival: 25.56%
[1]; [7]
  Survival: 56.44 * %
[1]; sinigrin 1.20 mM, combined with 0.12 M H2O2
  Survival: 19.33 * %
[1]; sinigrin 1.20 mM, combined with 0.12 M H2O2, listed as sinigrin
  Survival: 19.33%
[1]; [8]
  Survival: 78.22 * %
[1]; sinigrin 1.20 mM, simple treatment, listed as sinigrin
  Survival: 78.22%
[1]; sinigrin 2.40 mM, combined with 0.12 M H2O2
  Survival: 47.33 * %
[1]; [9]
  Survival: 61.56 * %
[1]; sinigrin 4.81 mM, combined with 0.12 M H2O2
  Survival: 60.22 * %
[1]; sinigrin 4.81 mM, combined with 0.12 M H2O2, listed as sinigrin
  Survival: 60.22%
[1]; [10]
  Survival: 76.89 * %
[1]; survival average, combined (H2O2) against simple treatments
  Reduction of survival: ~ 30%
[2]; average over all doses, simple treatment
  Total mutation rate, average: 0.15 spots per wing
[2]; [7]
  Large single spots > 2 cells; m = 5: diagnosis: −
  Large single spots > 2 cells; m = 5: mutation rate (number of spots): 0.03 (1) spots per wing
  Small single spots 1–2 cells; m = 2: diagnosis: −
  Small single spots 1–2 cells; m = 2: mutation rate (number of spots): 0.18 (7) spots per wing
  Total spots m = 2: diagnosis: −
  Total spots m = 2: mutation rate (number of spots): 0.20 (8) spots per wing
  Twin spots m = 5: mutation rate (number of spots): 0 spots per wing
[2]; [8]
  Large single spots > 2 cells; m = 5: diagnosis: −
  Large single spots > 2 cells; m = 5: mutation rate (number of spots): 0.03 (1) spots per wing
  Small single spots 1–2 cells; m = 2: diagnosis: −
  Small single spots 1–2 cells; m = 2: mutation rate (number of spots): 0.12 (4) spots per wing
  Total spots m = 2: diagnosis: −
  Total spots m = 2: mutation rate (number of spots): 0.18 (6) spots per wing
  Twin spots m = 5: diagnosis: −
  Twin spots m = 5: mutation rate (number of spots): 0.03 (1) spots per wing
[2]; [9]
  Large single spots > 2 cells; m = 5: diagnosis: −
  Large single spots > 2 cells; m = 5: mutation rate (number of spots): 0.03 (1) spots per wing
  Small single spots 1–2 cells; m = 2: diagnosis: −
  Small single spots 1–2 cells; m = 2: mutation rate (number of spots): 0.08 (3) spots per wing
  Total spots m = 2: diagnosis: −
  Total spots m = 2: mutation rate (number of spots): 0.11 (4) spots per wing
  Twin spots m = 5: mutation rate (number of spots): 0 spots per wing
[2]; [10]
  Large single spots > 2 cells; m = 5: mutation rate (number of spots): 0 spots per wing
  Small single spots 1–2 cells; m = 2: diagnosis: −
  Small single spots 1–2 cells; m = 2: mutation rate (number of spots): 0.14 (4) spots per wing
  Total spots m = 2: diagnosis: −
  Total spots m = 2: mutation rate (number of spots): 0.14 (4) spots per wing
  Twin spots m = 5: mutation rate (number of spots): 0 spots per wing
[3]; sinigrin 0.60 mM
  Large single spots > 2 cells; m = 5: mutation rate (number of spots): 0 spots per wing
  Small single spots 1–2 cells; m = 2: diagnosis: −
  Small single spots 1–2 cells; m = 2: mutation rate (number of spots): 0.19 (6) spots per wing
  Total spots m = 2: diagnosis: −
  Total spots m = 2: mutation rate (number of spots): 0.19 (6) spots per wing
  Twin spots m = 5: mutation rate (number of spots): 0 spots per wing
[3]; sinigrin 1.20 mM
  Large single spots > 2 cells; m = 5: mutation rate (number of spots): 0 spots per wing
  Small single spots 1–2 cells; m = 2: diagnosis: −
  Small single spots 1–2 cells; m = 2: mutation rate (number of spots): 0.20 (4) spots per wing
  Total spots m = 2: diagnosis: −
  Total spots m = 2: mutation rate (number of spots): 0.20 (4) spots per wing
  Twin spots m = 5: mutation rate (number of spots): 0 spots per wing
[3]; sinigrin 2.40 mM
  Large single spots > 2 cells; m = 5: mutation rate (number of spots): 0 spots per wing
  Small single spots 1–2 cells; m = 2: diagnosis: −
  Total spots m = 2: diagnosis: −
  Twin spots m = 5: mutation rate (number of spots): 0 spots per wing
[3]; sinigrin 4.81 mM, against H2O2
  Percentage of inhibition of clone formation: 84.61%
[3]; sinigrin 4.81 mM
  Large single spots > 2 cells; m = 5: mutation rate (number of spots): 0 spots per wing
  Small single spots 1–2 cells; m = 2: diagnosis: −
  Small single spots 1–2 cells; m = 2: mutation rate (number of spots): 0.10 (1) spots per wing
  Total spots m = 2: diagnosis: −
  Total spots m = 2: mutation rate (number of spots): 0.10 (1) spots per wing
  Twin spots m = 5: mutation rate (number of spots): 0 spots per wing
[4]
  Non-toxic up to the concentration: ≤ 80 g/L
[4]; with addition of myrosinase
  LC50: 500 µg/mL (≈ 1390 µM)
[5]
  Effect on induced hepatocarcinogenesis: able to inhibit induced hepatocarcinogenesis
[6]; at concentrations of 2 mg·mL^−1
  Chromosome aberrations / sister chromatid exchanges: induced chromosome aberrations but not sister chromatid exchanges
[6]
  Genotoxicity and cytotoxicity: neither genotoxic nor cytotoxic

## OO [H2O2, hydrogen peroxide, reference compound]
[1]; H2O2 0.12 M, simple treatment, emerged adults vs H2O control
  Survival: 37.78% and 37.78 * %
[2]; in vivo
  Large single spots > 2 cells; m = 5: diagnosis: −
  Large single spots > 2 cells; m = 5: mutation rate (number of spots): 0.07 (11) spots per wing
  Small single spots 1–2 cells; m = 2: diagnosis: +
  Small single spots 1–2 cells; m = 2: mutation rate (number of spots): 0.60 (94) spots per wing
  Total spots m = 2: diagnosis: +
  Total spots m = 2: mutation rate (number of spots): 0.65 (109) spots per wing
  Twin spots m = 5: diagnosis: −
  Twin spots m = 5: mutation rate (number of spots): 0.06 (4) spots per wing

## C=CCN=C=S [AITC, allyl-ITCs, reference compound]
[4]
  Lethal concentration value: 0.04 g/L
[6]; at high cytotoxic doses
  Genotoxicity: not genotoxic
